# Reference: patent US7365231B2, “Compound with antitumor activity and preparation method therefor” (National Taiwan University of Science & Technology, priority 2005, dated 2008)
# pIC50: −log10 of the molar value.
# Legend:
# Experiment in all cases: NCI panel growth inhibition, sulforhodamine B
# [1] = tested on: BT-549; type: cell-based, human; conditions: Homo sapiens, BT-549, BT-549, Breast cancer; drug for last 48 h of 72 h
# Description: (§1) Comparison of anticancer activities of the 1,3-substituted adamantane derivatives, 1,3-bis(4-aminophenyl)adamantane (1,3-DPANH2), 1,3-bis(4-(4-aminophenoxy)phenyl)adamantane (1,3-DPAONH2), 1,3-bis(4-(4-amino-3-hydroxy)phenyl)adamantane (1,3-DPA/OH/NH2) and 1,3-bis(4-(4-amino-2-trifluoromethylphenoxy)phenyl)adamantane (1,3-DPA/CF3/NH2) as shown in FIG. 1 were synthesized in the present invention. Those compounds were submitted to the National Cancer Institute for anticancer assay in culture against a standard panel of cell lines. […] To further confirm that the different substituents (CF3 and OH) on the phenyl ring of 1,3-DPAONH2 affect the growth inhibition of cancer cells. […] The transformations of 1,3-DPAONH2 to 1,3-DPA/OH/NH2 led to a remarked enhancement of anticancer activity toward all the tested cancer lines. The role of the OH group at the ortho position of the NH2 on growth inhibition is remarkable. In addition, one compound (1,3-DPA/OH/NH2) was confirmed to have an IC50 of <1 μM against one of the cells (BT-549 breast carcinoma). Comparison of anticancer activities of 1,3-substituted diaminophenyladamantane derivatives, the following order of potency against the tested cancer lines was observed: 1,3-DPA/OH/NH2>1,3-DPAONH2>1,3-DPANH2>1,3-DPA/CF3/NH2.
# [2] = tested on: NCI/ADR-RES; type: cell-based, human; conditions: Homo sapiens, Breast cancer, drug for last 48 h of 72 h
# Description: as §1
# [3] = tested on: SF-295; type: cell-based, human; conditions: Homo sapiens, SF-295, SF-295, CNS cancer; drug for last 48 h of 72 h
# Description: as §1
# [4] = tested on: SK-MEL-5; type: cell-based; conditions: Homo sapiens; SK-MEL-5, Melanoma; drug for last 48 h of 72 h
# Description: as §1
# [5] = tested on: TK-10; type: cell-based; conditions: Homo sapiens; TK-10, Renal cancer; drug for last 48 h of 72 h
# Description: as §1
# [6] = tested on: NCI-H522; type: cell-based; conditions: Homo sapiens; NCI-H522, NSCLC; drug for last 48 h of 72 h
# Description: as §1
# [7] = tested on: U251; type: cell-based; conditions: Homo sapiens, U-251; U251, CNS cancer; drug for last 48 h of 72 h
# Description: as §1
# [8] = tested on: HCT-116; type: cell-based; conditions: Homo sapiens; HCT-116, Colon cancer; drug for last 48 h of 72 h
# Description: as §1
# [9] = tested on: OVCAR-3; type: cell-based; conditions: Homo sapiens; OVCAR-3, Ovarian cancer; drug for last 48 h of 72 h
# Description: as §1
# [10] = tested on: M14; type: cell-based; conditions: Homo sapiens; M14, Melanoma; drug for last 48 h of 72 h
# Description: as §1
# [11] = tested on: OVCAR-5; type: cell-based; conditions: Homo sapiens; OVCAR-5, Ovarian cancer; drug for last 48 h of 72 h
# Description: as §1
# [12] = tested on: UACC-257; type: cell-based; conditions: Homo sapiens; UACC-257, Melanoma; drug for last 48 h of 72 h
# Description: as §1
# [13] = tested on: MOLT-4; type: cell-based; conditions: Homo sapiens; MOLT-4, Leukemia; drug for last 48 h of 72 h
# Description: as §1
# [14] = tested on: MDA-N; type: cell-based; conditions: Homo sapiens, Breast cancer, drug for last 48 h of 72 h
# Description: as §1
# [15] = tested on: SNB-19; type: cell-based; conditions: Homo sapiens; SNB-19, CNS cancer; drug for last 48 h of 72 h
# Description: as §1
# [16] = tested on: A549/ATCC; type: cell-based; conditions: Homo sapiens, NSCLC, drug for last 48 h of 72 h
# Description: as §1
# [17] = tested on: MCF-7; type: cell-based; conditions: Homo sapiens, MCF7; MCF-7, Breast cancer; drug for last 48 h of 72 h
# Description: as §1
# [18] = tested on: SK-MEL-2; type: cell-based; conditions: Homo sapiens; SK-MEL-2, Melanoma; drug for last 48 h of 72 h
# Description: as §1
# [19] = tested on: SK-MEL-28; type: cell-based; conditions: Homo sapiens; SK-MEL-28, Melanoma; drug for last 48 h of 72 h
# Description: as §1
# [20] = tested on: K-562; type: cell-based; conditions: Homo sapiens, K562; K-562, Leukemia; drug for last 48 h of 72 h
# Description: as §1
# [21] = tested on: CAKI-1; type: cell-based; conditions: Homo sapiens; CAKI-1, Renal cancer; drug for last 48 h of 72 h
# Description: as §1
# [22] = tested on: PC-3; type: cell-based; conditions: Homo sapiens; PC-3, Prostate cancer; drug for last 48 h of 72 h
# Description: as §1
# [23] = tested on: MDA-MB-435; type: cell-based; conditions: Homo sapiens; MDA-MB-435, Breast cancer; drug for last 48 h of 72 h
# Description: as §1
# [24] = tested on: SN12C; type: cell-based; conditions: Homo sapiens, Renal cancer, drug for last 48 h of 72 h
# Description: as §1
# [25] = tested on: SW-620; type: cell-based; conditions: Homo sapiens; SW-620, Colon cancer; drug for last 48 h of 72 h
# Description: as §1
# [26] = tested on: UO-31; type: cell-based; conditions: Homo sapiens; UO-31, Renal cancer; drug for last 48 h of 72 h
# Description: as §1
# [27] = tested on: COLO 205; type: cell-based; conditions: Homo sapiens; COLO 205, Colon cancer; drug for last 48 h of 72 h
# Description: as §1
# [28] = tested on: A498; type: cell-based; conditions: Homo sapiens; A498, Renal cancer; drug for last 48 h of 72 h
# Description: as §1
# [29] = tested on: HCT-15; type: cell-based; conditions: Homo sapiens; HCT-15, Colon cancer; drug for last 48 h of 72 h
# Description: as §1
# [30] = tested on: EKVX; type: cell-based; conditions: Homo sapiens, NSCLC, drug for last 48 h of 72 h
# Description: as §1
smiles,measurement,setting,value
"Nc1ccc(Oc2ccc(C3(c4ccc(Oc5ccc(N)c(O)c5)cc4)C4CC5CC(C4)CC3C5)cc2)cc1O [DPA, 2,2-bis(4-(4-amino-3-hydroxyphenoxy)phenyl)adamantane]",pIC50,[1],5.69
same,pIC50,[2],5.63
same,pIC50,[3],5.59
same,pIC50,[4],5.81
same,pIC50,[5],5.67
same,pIC50,[6],5.80
same,pIC50,[7],5.77
same,pIC50,[8],5.80
same,pIC50,[9],5.81
same,pIC50,[10],5.77
same,pIC50,[11],5.68
same,pIC50,[12],5.63
same,pIC50,[13],5.84
same,pIC50,[14],5.67
same,pIC50,[15],5.52
same,pIC50,[16],5.71
same,pIC50,[17],5.71
same,pIC50,[18],5.77
same,pIC50,[19],5.77
same,pIC50,[20],5.70
same,pIC50,[21],5.63
same,pIC50,[22],5.80
same,pIC50,[23],5.64
same,pIC50,[24],5.74
same,pIC50,[25],5.79
same,pIC50,[26],5.73
same,pIC50,[27],6.32
same,pIC50,[28],5.33
same,pIC50,[29],5.78
same,pIC50,[30],5.58
